According to patent US20060233887A1, “Bioactive material for use in stimulating vascularization” (The North West London Hospitals N H S Trust, priority 2003, published 2006):

Tested on: human endothelial cells
Assay: In vitro angiogenesis assay (Angiogenesis Assay Kit, CD31 staining, AngioSys image analysis)
Assay type: cell-based
Settings: 11 days
Source text: To evaluate the angiogenic growth factors secreted from fibroblasts in response to 45S5 Bioglass®, a commercial angiogenesis assay (Angiogenesis Assay Kit; TCS CellWorks Ltd) was used (Donovan D et al. Comparison of three in vitro human ‘angiogenesis’ assays with capillaries formed in vivo. Angiogenesis. 2001;4:113-121; Drinkwater S L et al Effect of venous ulcer exudates on angiogenesis in vitro. Br J Surg. 2002;89:709-713; Sengupta S et al. Thymidine phosphorylase induces angiogenesis in vivo and in vitro: an evaluation of possible mechanisms. Br J Pharmacol. 2003;139:219-231). The assay was performed according to the manufacturer's instructions.
In brief, on the day of delivery from the supplier, the medium in the culture plate was replaced with optimised medium (TCS CellWorks Ltd; supplied with the kit) alone (OM); OM:conditioned medium (medium collected from human colonic fibroblasts (CCD-18co) cultured on 0 g/cm^2 or 0.3125 mg/cm^2 45S5 Bioglass® for 72 hours) at 1:1 v/v; OM containing 2 ng/ml VEGF (positive control); or OM containing 20 μM suramin (negative control). Each treatment condition was repeated in quadruplicate. The culture medium was removed on days 4, 7 and 9 of the experiment and replaced with fresh pre-equilibrated (37° C. and 5% CO2) optimised medium plus each treatment. After 11 days, the endothelial cells were stained for CD31 (TCS CellWorks Ltd) using indirect immunocytochemistry as described in the manufacturer's instructions and allowed to air-dry. Each well was divided into quadrants on the underside of the plate. Photomicrographs of each quadrant were recorded with a Nikon Eclipse TE2000-S inverted photomicroscope fitted with a digital camera using a 4× objective lens. Image analysis software (AngioSys, Foster Findlay Associates, Newcastle Upon Tyne, UK) was used for automated scoring of the assay, providing quantitative measurements of endothelial tubule development (total vessel number, total tubule length and number of junctions), as previously described (Drinkwater S L et al Effect of venous ulcer exudates on angiogenesis in vitro. Br J Surg. 2002;89:709-713; Sengupta S et al. Thymidine phosphorylase induces angiogenesis in vivo and in vitro: an evaluation of possible mechanisms. Br J Pharmacol. 2003; 139:219-231).

[1] = 20 μM suramin, vs control endothelial cells

Row | Molecule | number of endothelial tubules [1] | number of tubule junctions [1] | total tubule length [1] | number of anastomosed endothelial tubules (micrographs) (2 ng/ml VEGF, vs optimised medium alone) | endothelial tubule development (tubules, tubule length, junctions) (2 ng/ml VEGF, positive control)
1 | Cc1ccc(C(=O)Nc2ccc(S(=O)(=O)O)c3cc(S(=O)(=O)O)cc(S(=O)(=O)O)c23)cc1NC(=O)c1cccc(NC(=O)Nc2cccc(C(=O)Nc3cc(C(=O)Nc4ccc(S(=O)(=O)O)c5cc(S(=O)(=O)O)cc(S(=O)(=O)O)c45)ccc3C)c2)c1 [suramin] | reduced | reduced | reduced | – | –
2 | VEGF | – | – | – | visible increase | Significant increases
